From PMC8588467, “Rational Design 2-Hydroxypropylphosphonium Salts as Cancer Cell Mitochondria-Targeted Vectors: Synthesis, Structure, and Biological Properties” (Molecules, 2021) come the findings set out here.

In general, IC50 refers to the concentration needed to halve the response being measured.

Read-outs that look alike come from different tables or passages of the source. Some results are limits rather than exact numbers.

Test [1] concerns HuTu 80 (human duodenal adenocarcinoma). Kind of test: MTT cytotoxicity, HuTu 80. The class given is cell-based. The following applies: for IC50: mean ± SD, triplicate; for SI HuTu 80: IC50 normal cells (WI38) / IC50 cancer cells, ns = no selectivity.
Test [2] deals with MCF-7 (human breast adenocarcinoma). Nature of the test: MTT cytotoxicity, MCF-7. The note with it: for IC50: mean ± SD, triplicate; for SI MCF-7: IC50 normal cells (WI38) / IC50 cancer cells, ns = no selectivity. The class given is cell-based.
The subject of test [3] is WI38 (diploid human embryo lung). Kind of test: MTT cytotoxicity, normal cells WI38. The class given is cell-based. The note with it: mean ± SD, triplicate, read-out: WI38 IC50 (normal cell line).
In test [4] the test system is M-HeLa (human cervix epitheloid carcinoma). Kind of test: MTT cytotoxicity, M-HeLa. The class given is cell-based. The note with it: for IC50: MTT, mean ± SD, triplicate; for SI M-HeLa: IC50 normal cells (WI38) / IC50 cancer cells, ns = no selectivity.
Test [5] has as its system T98G glioblastoma cell line. Kind of test: MTT cytotoxicity, T98G. The following applies: for IC50: MTT, mean ± SD, triplicate; for SI T98G: IC50 normal cells (WI38) / IC50 cancer cells, ns = no selectivity. The class given is cell-based, human.
The subject of test [6] is PC3 (human prostate adenocarcinoma). Nature of the test: MTT cytotoxicity, PC3. The following applies: for IC50: mean ± SD, triplicate; for SI PC3: IC50 normal cells (WI38) / IC50 cancer cells, ns = no selectivity.
The test system of test [7] is A549 (human lung carcinoma). Nature of the test: MTT cytotoxicity, A549. The class given is cell-based. The note with it: for IC50: mean ± SD, triplicate; for SI A549: IC50 normal cells (WI38) / IC50 cancer cells, ns = no selectivity.
Setting [8] is: Homo sapiens, read-out: IC50 PC3, MTT.

`OC(CF)C[P+](c1ccccc1)(c1ccccc1)c1ccccc1` (stereo not drawn) [3c, (3-Fluoro-2-hydroxypropyl)triphenylphosphonium trifluoromethanesulfonate]: the IC50 in test [1] (Homo sapiens, HuTu80, MTT) came out at 19.1 ± 1.6 µM; in test [2] (Homo sapiens, MCF7, MTT), 56.5 ± 4.5 µM; in test [3] (Homo sapiens, WI-38, MTT), 47.3 ± 3.8 µM; in test [4] (Homo sapiens, M-HeLa), 90.6 ± 8.6 µM; in test [5] (Homo sapiens, T98G) it was 52.1 ± 4.1 µM; in test [6] (setting [8]) it was 53.5 ± 4.2 µM. Besides, in test [7] (Homo sapiens, A549, MTT), the IC50 was above 100 µM. Also, the “SI HuTu 80” value in test [1] was found to be 2.5. Also, in test [2], the “SI MCF-7” value was “ns”. For the same compound, the “SI M-HeLa” value in test [4] is “ns”. The “SI T98G” value in test [5] is listed as “ns”. Besides, the “SI PC3” value in test [6] is recorded as “ns”. Also, in test [7], the “SI A549” value is recorded as “ns”.

Take `OC(CI)C[P+](c1ccccc1)(c1ccccc1)c1ccccc1` (stereo not drawn) [3d, (2-Hydroxy-3-iodopropyl)triphenylphosphonium trifluoromethanesulfonate]: the 50% inhibitory concentration (IC50) amounted to 9.4 ± 0.7 µM in test [1] (Homo sapiens, HuTu80, MTT); 88.6 ± 7.1 µM in test [2] (Homo sapiens, MCF7, MTT); 35.2 ± 2.3 µM in test [3] (Homo sapiens, WI-38, MTT); 50 ± 4.3 µM in test [4] (Homo sapiens, M-HeLa); 64 ± 4.8 µM in test [5] (Homo sapiens, T98G); 39.1 ± 3.1 µM in test [6] (setting [8]). In addition, half-maximal inhibition in test [7] (Homo sapiens, A549, MTT) (IC50) required 74.2 ± 5.6 µM. In addition, the “SI HuTu 80” value in test [1] was 4. Moreover, in test [2], the “SI MCF-7” value is “ns”. Besides, in test [4], the “SI M-HeLa” value is “ns”. In test [5], the “SI T98G” value is listed as “ns”. Besides, the “SI PC3” value in test [6] is listed as “ns”. For the same compound, the “SI A549” value in test [7] is “ns”.

For the compound `COCC(O)C[P+](c1ccccc1)(c1ccccc1)c1ccccc1` (stereo not drawn) [3f, (2-Hydroxy-3-methoxypropyl)triphenylphosphonium trifluoromethanesulfonate], the “SI HuTu 80” value in test [1] is listed as 1.5. Moreover, the IC50 in test [1] (MTT) stood at 23.6 ± 1.8 µM; in test [2] (MTT) it was 60.7 ± 4.9 µM; in test [3] (MTT) it was 35.6 ± 2.6 µM; in test [4], 56.2 ± 4.7 µM; in test [5] it was 60.4 ± 4.4 µM; in test [6] (read-out: IC50 PC3, MTT), 55.2 ± 4.5 µM. The same compound gave an IC50 in test [7] (MTT) of 39 ± 3 µM. Moreover, the “SI MCF-7” value in test [2] is on record as “ns”. Moreover, in test [4], the “SI M-HeLa” value is listed as “ns”. Besides, in test [5], the “SI T98G” value is “ns”. Besides, in test [6], the “SI PC3” value is on record as “ns”. In addition, in test [7], the “SI A549” value is given as “ns”.

For `CCOCC(O)C[P+](c1ccccc1)(c1ccccc1)c1ccccc1` (stereo not drawn) [3g, (3-Ethoxy-2-hydroxypropyl)triphenylphosphonium trifluoromethanesulfonate], in test [1], the “SI HuTu 80” value is reported as 1.6. Further, the 50% inhibitory concentration (IC50) in test [1] (MTT) was 18.4 ± 1.5 µM; in test [2] (Homo sapiens, MCF7, MTT) it was 66.8 ± 5.3 µM; in test [3] (Homo sapiens, WI-38, MTT) it was 30.1 ± 2.3 µM; in test [4] (Homo sapiens, M-HeLa), 63.7 ± 5.2 µM; in test [5] (Homo sapiens, T98G), 62.9 ± 4.6 µM; in test [6] (setting [8]), 48.9 ± 3.9 µM. The compound also yielded an IC50 in test [7] (Homo sapiens, A549, MTT) of 42.2 ± 3.2 µM. Further, the “SI MCF-7” value in test [2] is given as “ns”. The “SI M-HeLa” value in test [4] is given as “ns”. Also, the “SI T98G” value in test [5] is on record as “ns”. For the same compound, the “SI PC3” value in test [6] was “ns”. Moreover, the “SI A549” value in test [7] is reported as “ns”.

Regarding `OC(COCC(F)(F)C(F)F)C[P+](c1ccccc1)(c1ccccc1)c1ccccc1` (stereo not drawn) [3h, (2-Hydroxy-3-(2,2,3,3-tetrafluoropropoxy)propyl)triphenylphosphonium trifluoromethanesulfonate], the half-inhibitory concentration (IC50) in test [1] (Homo sapiens, HuTu80, MTT) was 28.9 ± 2.1 µM; in test [2] (Homo sapiens, MCF7, MTT), 64.4 ± 5 µM; in test [3] (Homo sapiens, WI-38, MTT), 43.7 ± 3.5 µM; in test [4] (Homo sapiens, M-HeLa), 100 ± 8.6 µM; in test [5] (Homo sapiens, T98G) it was 63.4 ± 4.8 µM; in test [6] (setting [8]), 48.7 ± 3.7 µM. Moreover, in test [7] (Homo sapiens, A549, MTT), the IC50 worked out at 34.3 ± 2.6 µM. In addition, the “SI HuTu 80” value in test [1] is “ns”. The “SI MCF-7” value in test [2] is listed as “ns”. For the same compound, the “SI M-HeLa” value in test [4] is on record as “ns”. Moreover, the “SI T98G” value in test [5] is recorded as “ns”. The “SI PC3” value in test [6] is reported as “ns”. In addition, in test [7], the “SI A549” value is given as “ns”.

`C=CCOCC(O)C[P+](c1ccccc1)(c1ccccc1)c1ccccc1` (stereo not drawn) [3i, (3-(Allyloxy)-2-hydroxypropyl)triphenylphosphonium trifluoromethanesulfonate]: the “SI HuTu 80” value in test [1] was 5. Also, the IC50 came to 7.1 ± 0.06 µM in test [1] (MTT); 70.5 ± 5.6 µM in test [2] (MTT); 34.2 ± 2.7 µM in test [3] (MTT); 60.8 ± 5.2 µM in test [4]; 50.4 ± 4 µM in test [5]; 71.8 ± 6.6 µM in test [6] (read-out: IC50 PC3, MTT). Besides, the IC50 in test [7] (MTT) was determined as 41 ± 3.3 µM. In addition, the “SI MCF-7” value in test [2] is given as “ns”. Besides, the “SI M-HeLa” value in test [4] was “ns”. In addition, the “SI T98G” value in test [5] is “ns”. Further, the “SI PC3” value in test [6] was “ns”. Also, the “SI A549” value in test [7] was “ns”.

Regarding `CCCCCCCCCCCCCCCCCC(=O)OCC(O)C[P+](c1ccccc1)(c1ccccc1)c1ccccc1` (stereo not drawn) [3l, (2-Hydroxy-3-stearoyloxy-propyl)triphenylphosphoniumtrifluoromethanesulfonate], the IC50 in test [1] (Homo sapiens, HuTu80, MTT) was determined as 45 ± 3.5 µM; in test [2] (Homo sapiens, MCF7, MTT), 52.8 ± 4.2 µM; in test [3] (Homo sapiens, WI-38, MTT) it was 50 ± 3.9 µM; in test [4] (Homo sapiens, M-HeLa), 59.2 ± 5.1 µM; in test [5] (Homo sapiens, T98G), 55.9 ± 5 µM; in test [6] (setting [8]), 53.8 ± 4.4 µM. The compound further returned an IC50 in test [7] (Homo sapiens, A549, MTT) of 75.1 ± 5.7 µM. For the same compound, the “SI HuTu 80” value in test [1] is listed as “ns”. Further, the “SI MCF-7” value in test [2] is on record as “ns”. In test [4], the “SI M-HeLa” value is on record as “ns”. Further, the “SI T98G” value in test [5] is “ns”. Moreover, the “SI PC3” value in test [6] is given as “ns”. In addition, the “SI A549” value in test [7] is “ns”.

For `COCC(O)C[P+](c1ccccc1)(c1ccccc1)c1ccccc1` (stereo not drawn) [4a], the IC50 is 26.7 ± 2.1 µM in test [1] (Homo sapiens, HuTu80, MTT); 75.7 ± 5.9 µM in test [2] (Homo sapiens, MCF7, MTT); 36.5 ± 2.8 µM in test [3] (Homo sapiens, WI-38, MTT); 57.3 ± 4.7 µM in test [4] (Homo sapiens, M-HeLa); 55.3 ± 4.4 µM in test [5] (Homo sapiens, T98G); 50.3 ± 4 µM in test [6] (setting [8]). The compound further had an IC50 in test [7] (Homo sapiens, A549, MTT) of 36 ± 2.8 µM. In addition, in test [1], the “SI HuTu 80” value was 1.4. Moreover, in test [2], the “SI MCF-7” value is “ns”. In test [4], the “SI M-HeLa” value is “ns”. Besides, the “SI T98G” value in test [5] is on record as “ns”. The “SI PC3” value in test [6] was “ns”. Besides, the “SI A549” value in test [7] is on record as “ns”.

Take `CCOCC(O)C[P+](c1ccccc1)(c1ccccc1)c1ccccc1.[I-]` (stereo not drawn) [4b, (3-Ethoxy-2-hydroxypropyl)triphenylphosphonium iodide]: the “SI HuTu 80” value in test [1] came out at 7. Besides, the half-inhibitory concentration (IC50) in test [1] (MTT) turned out to be 3.4 ± 0.3 µM; in test [2] (MTT), 60.3 ± 4.7 µM; in test [3] (MTT), 22.9 ± 1.9 µM; in test [4] it was 68.4 ± 5.9 µM; in test [5], 49.7 ± 4 µM; in test [6] (read-out: IC50 PC3, MTT), 42.4 ± 3.3 µM. Moreover, the IC50 in test [7] (MTT) was found to be 39.1 ± 3.1 µM. For the same compound, in test [2], the “SI MCF-7” value is reported as “ns”. Further, the “SI M-HeLa” value in test [4] is recorded as “ns”. The “SI T98G” value in test [5] is given as “ns”. The “SI PC3” value in test [6] is “ns”. The “SI A549” value in test [7] is listed as “ns”.
